For 5 compounds, Ki results are on record in BindingDB's records for doi:10.1021/jm00090a012 (National Institute of Diabetes and Digestive and Kidney …, 1992).

pKi: −log10 of the molar value.

As a reminder, the pKi is −log10 of the Ki, conventionally taken in molar units.

A short description of assay [1]: Binding affinity against sigma receptor from guinea pig brain, using [3H](+)-pentazocine as radioligand.
A short description of assay [2]: Binding affinity against sigma receptor from guinea pig brain, using [3H](+)-3-PPP as radioligand.
The target of assay [3] is Sigma non-opioid intracellular receptor 1 (Cavia porcellus) (UniProt Q60492). Description: Binding affinity against sigma receptor from guinea pig brain, using [3H](+)-pentazocine as radioligand.
Assay [4] in a line: Binding affinity against phencyclidine (PCP) receptor from guinea pig brain, using [3H]TCP as radioligand.

Sequence of Sigma non-opioid intracellular receptor 1 (Cavia porcellus) (Q60492 whole entry, looked up): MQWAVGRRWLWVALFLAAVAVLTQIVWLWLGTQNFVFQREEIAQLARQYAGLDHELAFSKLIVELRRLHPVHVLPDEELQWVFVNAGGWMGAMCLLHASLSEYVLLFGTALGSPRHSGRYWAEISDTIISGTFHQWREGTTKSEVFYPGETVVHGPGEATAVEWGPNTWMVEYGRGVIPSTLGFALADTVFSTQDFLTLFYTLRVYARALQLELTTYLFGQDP

As for `FCCCCCN1CCN(CCc2ccc(Cl)c(Cl)c2)CC1`, the pKi in assay [1] is 9.28; in assay [2], 9.07.

As to `FCCCN(CCc1ccc(Cl)c(Cl)c1)CCN1CCCC1`, the pKi in assay [2] was 8.37.

In the case of `FCCCN1CCN(CCc2ccc(Cl)c(Cl)c2)CC1`, the pKi in assay [3] is 9.41.

For the compound `Clc1ccc(CCN2CCN(CCCI)CC2)cc1Cl`, the pKi in assay [1] is 8.92; in assay [2], 8.89.

In turn, `CCCCCN1CC[C@@]2(C)c3cc(O)ccc3CC1[C@H]2C` [(6R,11S)-6,11-Dimethyl-3-pentyl-1,2,3,4,5,6-hexahydro-2,6-methano-benzo[d]azocin-8-ol] had a pKi in assay [4] of 5.04.
